Results from publication PMC11054573, “Identification of Ureidocoumarin-Based Selective Discoidin Domain Receptor 1 (DDR1) Inhibitors via Drug Repurposing Approach, Biological Evaluation, and In Silico Studies” (Pharmaceuticals, 2024).
Read-outs that look alike come from different tables or passages of the source.

Assays:
[1] = tested on: MCF-7 breast cancer cells; experiment: NCI SRB antiproliferative assay, MCF-7; type: cell-based; settings: Homo sapiens, MCF7; for inhibition at 10 µM: read-out: % Growth inhibition at 10 µM MCF-7; for GI50: five-dose testing
Method: (§1) Six members, 3a, 3g–j, and 3q, out of the investigated compounds were further evaluated for their antiproliferative effects against human cancer cell lines, including leukemia (K562), colon cancer (HCT116), non-small cell lung (NSCL) cancer (A549, NCI-H23 and NCI-H460), and breast cancer (MCF-7 and T47D) cells. The tested cell lines’ choice depended on their elevated DDR1 expression levels. The cell lines were all treated with a 10 µM concentration of the tested compounds, and the results were expressed as the percentage of growth inhibition (%GI) (Table 4).
(§2) Inhibition of the tumor relevant carbonic anhydrases IX and XII may be one of these additional mechanisms.
(§3) The evaluation of the antiproliferative activities of compounds 3a, 3g–j, and 3q over a panel of DDR1-dependent cell lines was conducted employing the sensitive Sulforhodamine B (SRB) assay at the National Cancer Institute (NCI), Bethesda, Maryland, USA, following the standard protocol.

[2] = tested on: NCI-H460 non-small cell lung cancer cells; experiment: NCI SRB antiproliferative assay, NCI-H460; type: cell-based; settings: Homo sapiens; for inhibition at 10 µM: read-out: % Growth inhibition at 10 µM NCI-H460; for GI50: five-dose testing
Method: as §1, §2, §3

[3] = tested on: A549 non-small cell lung cancer cells; experiment: NCI SRB antiproliferative assay, A549; type: cell-based; settings: Homo sapiens; for inhibition at 10 µM: read-out: % Growth inhibition at 10 µM A549; for GI50: five-dose testing
Method: as §1, §2, §3

[4] = tested on: HCT116 colon cancer cells; experiment: NCI SRB antiproliferative assay, HCT116; type: cell-based; settings: Homo sapiens, HCT-116; for inhibition at 10 µM: read-out: % Growth inhibition at 10 µM HCT116; for GI50: five-dose testing
Method: as §1, §2, §3

T47D breast cancer cells = experiment: NCI SRB antiproliferative assay, T47D; type: cell-based; settings: Homo sapiens; for inhibition at 10 µM: read-out: % Growth inhibition at 10 µM T47D; for GI50: five-dose testing
Method: as §1, §2, §3

[5] = tested on: NCI-H23 non-small cell lung cancer cells; experiment: NCI SRB antiproliferative assay, NCI-H23; type: cell-based; settings: Homo sapiens; for inhibition at 10 µM: read-out: % Growth inhibition at 10 µM NCI-H23; for GI50: five-dose testing
Method: as §1, §2, §3

DDR1 [6] = molecular target: T1, DDR1 (Homo sapiens, UniProt Q08345); experiment: RBC radiometric HotSpot kinase assay, DDR1; settings: for SI: Selectivity index (IC50 DDR2/IC50 DDR1): DDR1 over DDR2; for inhibition at 10 µM: read-out: % Inhibition at 10 μM (SEM) DDR1
Method: (§7) All compounds in this study were tested against DDR1 and DDR2 at a 10 µM dose at Reaction Biology Corporation (RBC, Malvern, PA, USA) employing the radiometric HotSpot Kinase assay protocol (Table 1).

DDR2 = molecular target: T2, DDR2 (Homo sapiens, UniProt Q16832); experiment: RBC radiometric HotSpot kinase assay, DDR2; settings: for inhibition at 10 µM: read-out: % Inhibition at 10 μM (SEM) DDR2
T2 sequence (Q16832 22-855): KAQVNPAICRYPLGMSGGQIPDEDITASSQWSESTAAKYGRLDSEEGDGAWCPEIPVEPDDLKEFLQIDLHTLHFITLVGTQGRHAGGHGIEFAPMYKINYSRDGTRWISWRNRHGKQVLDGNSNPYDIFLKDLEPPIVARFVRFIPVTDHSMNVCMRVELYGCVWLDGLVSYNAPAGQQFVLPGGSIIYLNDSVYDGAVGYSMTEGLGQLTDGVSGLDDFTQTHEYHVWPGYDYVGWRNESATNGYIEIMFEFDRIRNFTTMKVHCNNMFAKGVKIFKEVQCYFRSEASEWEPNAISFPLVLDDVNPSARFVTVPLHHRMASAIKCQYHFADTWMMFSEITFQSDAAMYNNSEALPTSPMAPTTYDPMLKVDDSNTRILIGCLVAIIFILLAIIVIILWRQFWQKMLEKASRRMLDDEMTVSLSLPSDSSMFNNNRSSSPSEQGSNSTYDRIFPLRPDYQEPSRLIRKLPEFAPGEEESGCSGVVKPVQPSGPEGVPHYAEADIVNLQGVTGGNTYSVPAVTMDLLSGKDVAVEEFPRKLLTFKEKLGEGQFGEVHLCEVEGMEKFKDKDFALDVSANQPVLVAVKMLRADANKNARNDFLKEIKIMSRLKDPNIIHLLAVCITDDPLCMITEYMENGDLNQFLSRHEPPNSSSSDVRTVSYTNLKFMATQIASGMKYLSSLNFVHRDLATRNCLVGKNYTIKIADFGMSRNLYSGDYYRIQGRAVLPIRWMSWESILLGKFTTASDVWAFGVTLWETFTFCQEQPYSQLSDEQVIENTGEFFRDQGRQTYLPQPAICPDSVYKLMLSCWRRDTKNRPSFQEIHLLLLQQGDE
Method: as §7

K562 leukemia cells = experiment: NCI SRB antiproliferative assay, K562; type: cell-based; settings: Homo sapiens; for inhibition at 10 µM: read-out: % Growth inhibition at 10 µM K562; for GI50: five-dose testing
Method: as §1, §2, §3

[7] = tested on: DDR1-dependent cancer cell lines; experiment: NCI SRB antiproliferative assay, whole panel of DDR1-dependent cell lines; type: cell-based, human; settings: span over the seven cell lines; for %GI over all tested cell lines: 10 µM
Method: as §1, §2, §3

TrkA kinase = molecular target: T3, TrkA kinase (Homo sapiens, UniProt P04629); experiment: Biochemical kinase profile (23 oncogenic kinases), TrkA; settings: 10 μM compound, 10 μM ATP, single-dose duplicate
T3 construct: purchased Reaction Biology Corporation (RBC)
Method: (§4) These tested kinases were selected based on common off targets for several DDR1/2 kinase inhibitors.
(§5) Reaction Biology Corporation (RBC) Kinase HotSpot^SM service was adopted for biochemical evaluation of the target compounds against DDR1 and DDR2 kinases along with the kinase profile of compound 3q according to the reported assay protocol.
(§6) Figure 5 Inhibition percentages exerted by compound 3q (10 µM) over a panel of 23 oncogenic kinases. Compound 3q was tested in a single-dose duplicate mode, and the reactions were carried out at 10 μM ATP.

ABL1 kinase = molecular target: T4, ABL1 kinase (Homo sapiens, UniProt P00519); experiment: Biochemical kinase profile (23 oncogenic kinases), ABL1; settings: 10 μM compound, 10 μM ATP, single-dose duplicate; read-out: % inhibition ABL1 kinase (and rest of tested kinases)
T4 construct: purchased Reaction Biology Corporation (RBC)
Method: as §4, §5, §6

c-Kit kinase = molecular target: T5, c-Kit kinase (Homo sapiens, UniProt P10721); experiment: Biochemical kinase profile (23 oncogenic kinases), c-Kit; settings: 10 μM compound, 10 μM ATP, single-dose duplicate
T5 construct: purchased Reaction Biology Corporation (RBC)
Method: as §4, §5, §6

DDR1 [8] = molecular target: T1, DDR1; design: purchased Reaction Biology Corporation (RBC, Malvern, PA, USA); settings: cited from earlier work

T1 sequence (Q08345 19-913): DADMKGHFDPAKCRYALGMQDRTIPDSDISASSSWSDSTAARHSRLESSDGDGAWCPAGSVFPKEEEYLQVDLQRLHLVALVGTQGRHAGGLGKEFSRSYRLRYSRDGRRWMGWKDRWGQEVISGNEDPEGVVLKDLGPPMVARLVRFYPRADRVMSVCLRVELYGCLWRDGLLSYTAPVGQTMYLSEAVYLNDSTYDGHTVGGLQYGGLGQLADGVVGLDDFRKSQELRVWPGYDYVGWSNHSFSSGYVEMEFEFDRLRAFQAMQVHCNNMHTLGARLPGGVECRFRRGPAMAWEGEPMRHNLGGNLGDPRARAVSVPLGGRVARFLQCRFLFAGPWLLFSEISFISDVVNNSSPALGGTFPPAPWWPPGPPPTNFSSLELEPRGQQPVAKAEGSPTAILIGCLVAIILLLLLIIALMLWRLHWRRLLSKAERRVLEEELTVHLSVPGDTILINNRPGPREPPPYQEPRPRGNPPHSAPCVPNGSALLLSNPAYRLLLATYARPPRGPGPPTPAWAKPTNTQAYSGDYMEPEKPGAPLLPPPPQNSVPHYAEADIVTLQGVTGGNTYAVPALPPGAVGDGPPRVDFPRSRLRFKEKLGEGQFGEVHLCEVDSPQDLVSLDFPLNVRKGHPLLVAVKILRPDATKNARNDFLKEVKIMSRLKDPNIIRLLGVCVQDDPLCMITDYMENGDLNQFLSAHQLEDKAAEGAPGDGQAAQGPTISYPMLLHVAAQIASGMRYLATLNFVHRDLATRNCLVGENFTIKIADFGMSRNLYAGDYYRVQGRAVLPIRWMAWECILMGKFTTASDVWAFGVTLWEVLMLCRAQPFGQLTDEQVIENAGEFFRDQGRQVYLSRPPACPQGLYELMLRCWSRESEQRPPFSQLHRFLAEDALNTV
T4 sequence (P00519 whole entry): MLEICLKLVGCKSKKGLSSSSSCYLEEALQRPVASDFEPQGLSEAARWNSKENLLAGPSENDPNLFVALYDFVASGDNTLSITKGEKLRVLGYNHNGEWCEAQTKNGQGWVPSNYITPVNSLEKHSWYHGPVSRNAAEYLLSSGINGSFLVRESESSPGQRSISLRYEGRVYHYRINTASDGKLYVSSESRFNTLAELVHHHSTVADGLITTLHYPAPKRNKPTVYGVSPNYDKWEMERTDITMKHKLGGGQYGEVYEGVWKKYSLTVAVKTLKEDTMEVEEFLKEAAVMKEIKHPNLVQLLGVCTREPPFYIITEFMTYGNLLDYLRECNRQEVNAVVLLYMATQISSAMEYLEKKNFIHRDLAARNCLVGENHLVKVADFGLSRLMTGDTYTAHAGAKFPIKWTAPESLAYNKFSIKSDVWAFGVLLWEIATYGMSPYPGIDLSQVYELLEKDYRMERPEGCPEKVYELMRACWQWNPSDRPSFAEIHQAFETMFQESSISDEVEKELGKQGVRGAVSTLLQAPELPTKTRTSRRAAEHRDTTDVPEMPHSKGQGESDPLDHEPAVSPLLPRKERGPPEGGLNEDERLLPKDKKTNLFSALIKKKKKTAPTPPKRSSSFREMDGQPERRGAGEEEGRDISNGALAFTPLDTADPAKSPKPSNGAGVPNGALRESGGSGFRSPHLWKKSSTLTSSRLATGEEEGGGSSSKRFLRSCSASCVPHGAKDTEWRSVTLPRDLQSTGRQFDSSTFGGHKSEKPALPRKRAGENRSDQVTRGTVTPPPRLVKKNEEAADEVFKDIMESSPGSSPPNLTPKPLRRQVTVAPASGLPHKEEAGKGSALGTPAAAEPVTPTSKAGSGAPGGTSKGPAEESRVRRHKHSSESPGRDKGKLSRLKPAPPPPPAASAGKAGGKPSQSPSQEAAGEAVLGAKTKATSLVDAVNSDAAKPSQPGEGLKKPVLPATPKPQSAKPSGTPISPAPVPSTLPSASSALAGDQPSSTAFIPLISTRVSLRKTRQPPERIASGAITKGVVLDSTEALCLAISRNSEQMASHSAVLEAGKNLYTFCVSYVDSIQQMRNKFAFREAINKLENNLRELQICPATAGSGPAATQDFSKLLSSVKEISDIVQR
T5 sequence (P10721 26-976): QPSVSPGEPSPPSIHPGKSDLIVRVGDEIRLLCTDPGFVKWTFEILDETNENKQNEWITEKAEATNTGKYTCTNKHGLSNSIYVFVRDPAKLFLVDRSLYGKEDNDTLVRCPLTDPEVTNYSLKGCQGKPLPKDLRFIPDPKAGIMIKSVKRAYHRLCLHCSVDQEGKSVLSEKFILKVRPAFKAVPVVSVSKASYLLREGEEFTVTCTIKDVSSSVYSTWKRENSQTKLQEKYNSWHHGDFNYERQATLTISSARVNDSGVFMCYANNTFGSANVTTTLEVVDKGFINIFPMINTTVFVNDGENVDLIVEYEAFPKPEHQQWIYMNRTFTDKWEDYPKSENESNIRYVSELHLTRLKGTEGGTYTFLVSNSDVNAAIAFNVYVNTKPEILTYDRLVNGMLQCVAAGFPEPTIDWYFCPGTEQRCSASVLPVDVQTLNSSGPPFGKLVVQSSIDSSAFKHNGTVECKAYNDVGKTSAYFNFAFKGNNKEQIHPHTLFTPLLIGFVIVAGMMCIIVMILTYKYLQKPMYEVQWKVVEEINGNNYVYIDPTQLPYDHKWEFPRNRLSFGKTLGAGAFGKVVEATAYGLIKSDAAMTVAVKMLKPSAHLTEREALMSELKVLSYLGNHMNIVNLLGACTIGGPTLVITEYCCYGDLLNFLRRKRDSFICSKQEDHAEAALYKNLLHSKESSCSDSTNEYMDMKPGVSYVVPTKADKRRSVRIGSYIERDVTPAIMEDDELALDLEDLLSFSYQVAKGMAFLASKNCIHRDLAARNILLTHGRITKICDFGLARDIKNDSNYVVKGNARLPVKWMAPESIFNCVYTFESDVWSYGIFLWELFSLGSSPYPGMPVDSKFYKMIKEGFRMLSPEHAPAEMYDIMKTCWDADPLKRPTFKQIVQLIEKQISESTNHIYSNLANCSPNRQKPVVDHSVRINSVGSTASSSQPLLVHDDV
T3 sequence (P04629 33-796): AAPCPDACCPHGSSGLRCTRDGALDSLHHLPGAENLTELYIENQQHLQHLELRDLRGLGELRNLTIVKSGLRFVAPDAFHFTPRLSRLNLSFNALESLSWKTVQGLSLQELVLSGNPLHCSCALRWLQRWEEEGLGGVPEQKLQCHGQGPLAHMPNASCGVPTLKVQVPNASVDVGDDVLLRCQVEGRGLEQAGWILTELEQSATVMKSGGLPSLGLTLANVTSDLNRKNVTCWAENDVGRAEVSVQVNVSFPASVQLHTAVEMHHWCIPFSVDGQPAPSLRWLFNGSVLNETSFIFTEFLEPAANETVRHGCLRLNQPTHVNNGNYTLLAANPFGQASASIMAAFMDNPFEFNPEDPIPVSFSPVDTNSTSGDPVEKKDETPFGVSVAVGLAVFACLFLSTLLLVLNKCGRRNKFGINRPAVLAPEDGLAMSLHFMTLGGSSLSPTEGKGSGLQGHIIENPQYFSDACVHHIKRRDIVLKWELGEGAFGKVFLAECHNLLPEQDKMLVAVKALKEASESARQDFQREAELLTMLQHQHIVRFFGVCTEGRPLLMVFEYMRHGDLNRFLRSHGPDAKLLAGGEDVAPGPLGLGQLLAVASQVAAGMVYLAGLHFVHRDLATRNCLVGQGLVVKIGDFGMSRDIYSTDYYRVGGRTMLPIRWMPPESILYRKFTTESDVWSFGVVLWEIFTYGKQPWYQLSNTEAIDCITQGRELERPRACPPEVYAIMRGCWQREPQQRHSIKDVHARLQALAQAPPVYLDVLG

| IC50 (DDR1 [6]) | SI: Selectivity index (IC50 DDR2/IC50 DDR1) (DDR1 [6]) | inhibition at 10 µM (DDR1 [6]) | IC50 (DDR2) | inhibition at 10 µM (DDR2) | SMILES | inhibition at 10 µM [1] | inhibition at 10 µM [2] | inhibition at 10 µM [3] | inhibition at 10 µM [4] | inhibition at 10 µM (T47D breast cancer cells) | inhibition at 10 µM [5] | inhibition at 10 µM (K562 leukemia cells) | other results |
| --- | --- | --- | --- | --- | --- | --- | --- | --- | --- | --- | --- | --- | --- |
| 2900 nM | >3.4 | 49% | > 10000 nM | 39.3% | O=C(Nc1ccc(Cl)c(C(F)(F)F)c1)Nc1ccc2oc(=O)ccc2c1 [Compound 3g] | 88.1% | 81.9% | 60.1% | 84.3% | 91.3% | 95.2% | 80.8% | – |
| – | – | 10.7% | – | 8.02% | Cc1cc(Cl)ccc1NC(=O)Nc1ccc2oc(=O)ccc2c1 [Compound 3n] | – | – | – | – | – | – | – | – |
| 2520 nM | >4.0 | 48.5% | > 10000 nM | 23.3% | O=C(Nc1cc(Cl)cc(Cl)c1)Nc1ccc2oc(=O)ccc2c1 [Compound 3j] | 94.5% | 98.8% | 83.8% | 98.6% | 96.5% | 106% | 84.6% | GI50 [1]: 2280 nM; GI50 [2]: 2270 nM; GI50 [3]: 2900 nM; GI50 ([7]; Homo sapiens, read-out: GI50 over all tested cell lines): 1930 to 2900 nM; GI50 [4]: 2310 nM; GI50 (T47D breast cancer cells): 1930 nM; GI50 [5]: 2670 nM; GI50 (K562 leukemia cells): 2340 nM |
| – | – | 15.4% | – | 3.07% | CCCCc1ccc(NC(=O)Nc2ccc3oc(=O)ccc3c2)cc1 [Compound 3e] | – | – | – | – | – | – | – | – |
| 321 nM | 7.5 | 92.7% | 2390 nM | 83.6% | O=C(Nc1cccc(C(F)(F)F)c1)Nc1ccc2oc(=O)ccc2c1 [Compound 3a] | 29.2% | 15.8% | 10.4% | 20.9% | 24.6% | 13.2% | 33.2% | – |
| 1660 nM | >6.0 | 57.2% | > 10000 nM | 27.5% | O=C(Nc1ccc(F)c(Cl)c1)Nc1ccc2oc(=O)ccc2c1 [Compound 3h] | 25.4% | 20.6% | 15.1% | 14.1% | 24.6% | 14.3% | 32.2% | %GI over all tested cell lines [7]: < 35% |
| – | – | 15% | – | 17.1% | O=C(Nc1ccc2oc(=O)ccc2c1)Nc1c(Br)cc(F)cc1Br [Compound 3p] | – | – | – | – | – | – | – | – |
| – | – | – | – | – | CCN1CCN(Cc2ccc(NC(=O)Nc3nc4ccc(Oc5ccnc(C(=O)NC)c5)cc4s3)cc2C(F)(F)F)CC1 [KST016366] | – | – | – | – | – | – | – | IC50 (DDR1 [8]): 26.5 nM |
| – | – | 24.5% | – | 11.7% | O=C(Nc1ccc(C(F)(F)F)cc1)Nc1ccc2oc(=O)ccc2c1 [Compound 3b] | – | – | – | – | – | – | – | – |
| – | – | 15.7% | – | -1.4% | Cc1cccc(Cl)c1NC(=O)Nc1ccc2oc(=O)ccc2c1 [Compound 3o] | – | – | – | – | – | – | – | – |

| SMILES | IC50 (DDR1 [6]) | SI: Selectivity index (IC50 DDR2/IC50 DDR1) (DDR1 [6]) | inhibition at 10 µM (DDR1 [6]) | IC50 (DDR2) | inhibition at 10 µM (DDR2) | inhibition at 10 µM [1] | inhibition at 10 µM [2] | inhibition at 10 µM [3] | inhibition at 10 µM [4] | inhibition at 10 µM (T47D breast cancer cells) | inhibition at 10 µM [5] | inhibition at 10 µM (K562 leukemia cells) | other results |
| --- | --- | --- | --- | --- | --- | --- | --- | --- | --- | --- | --- | --- | --- |
| O=C(Nc1cccc(OC(F)(F)F)c1)Nc1ccc2oc(=O)ccc2c1 [Compound 3q, 1-(2-Oxo-2H-chromen-6-yl)-3-(3-(trifluoromethoxy)phenyl)urea] | 191 nM | 26.6 | 87.4% | 5080 nM | 70.1% | 57% | 69.9% | 45.6% | 66.3% | 69.4% | 56.6% | 67.1% | %EI TrkA kinase (TrkA kinase): 46.95%; inhibition at 10 µM (ABL1 kinase): < 25%; %GI over all tested cell lines [7]: 45.65–69.93%; %EI c-Kit kinase (c-Kit kinase): 75.59% |
| O=C(Nc1cc(C(F)(F)F)cc(C(F)(F)F)c1)Nc1ccc2oc(=O)ccc2c1 [Compound 3i] | 1530 nM | 12.4 | 77.1% | 19000 nM | 67.3% | 96.2% | 93.6% | 84.8% | 97.9% | 95.2% | 100% | 86.3% | GI50 [1]: 1940 nM; GI50 [2]: 690 nM; GI50 [3]: 1590 nM; GI50 [4]: 732 nM; GI50 (T47D breast cancer cells): 1340 nM; GI50 [5]: 940 nM; GI50 (K562 leukemia cells): 550 nM |
